For 74 compounds, Kd results are on record in patent US20260373266A1, “PROTEIN DEGRADERS AND USES THEREOF” (KYMERA THERAPEUTICS, INC., priority 2022, published 2026).

The Kd is the free concentration of one partner at which half of the binding sites on the other are occupied at equilibrium, for simple one-to-one binding.

T1 sequence (Q9Y4B6 1077-1390): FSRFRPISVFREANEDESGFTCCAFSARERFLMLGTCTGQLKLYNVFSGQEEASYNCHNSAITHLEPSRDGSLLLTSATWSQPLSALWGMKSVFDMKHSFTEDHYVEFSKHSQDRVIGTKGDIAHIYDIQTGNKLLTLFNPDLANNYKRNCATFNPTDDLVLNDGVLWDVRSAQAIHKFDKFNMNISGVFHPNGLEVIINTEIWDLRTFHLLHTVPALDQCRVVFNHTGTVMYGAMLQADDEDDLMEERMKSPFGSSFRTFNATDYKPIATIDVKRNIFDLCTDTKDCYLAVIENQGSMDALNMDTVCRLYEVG

This test concerns the target T1, DCAF1 WD40 domain (residues 1077-1390) (Homo sapiens, UniProt Q9Y4B6).
T1 construct: DCAF1 WD40 domain (residues 1077-1390)
In words: DCAF1 binding assay by SPR (Biacore 8K+), DCAF1-3 KD. The conditions noted are these: 25 °C, read-out: DCAF1-3 SPR (KD). (SPR reads the build-up and loss of mass on a sensor chip optically.)
Turning to `Cc1sc2c(c1C)C(c1ccc(Cl)cc1)=N[C@@H](CC(=O)NCCOCCOCCOCCOCCCc1ccc(C(=O)c3[nH]cc(C(=O)N[C@@H](CC(=O)N4CCN(C(=O)OCc5ccccc5)CC4)c4cccc(Cl)c4)c3-c3c(F)ccc(F)c3C)cc1)c1cnc(C)n1-2` [I-914], the Kd was less than 10 µM.
On to `Cc1cc(F)c(-c2[nH]ncc2C(=O)N[C@@H](CC(N)=O)c2cccc(Cl)c2)c(F)c1` [I-549], for which the dissociation constant (Kd) was less than 10 µM.
In the case of `C=CC(=O)N(C)CCCCC1CCN(c2ccnc(N3CC[C@@H]4[C@H]3CCCN4c3cccc(F)c3)c2)CC1` [I-850], the Kd is less than 10 µM.
For `Nc1ccc(N2CCC[C@@H]3[C@H]2CCN3c2cc(N3CC4CC(C4)C3)ccn2)cc1F` [I-733], the equilibrium dissociation constant (Kd) was less than 10 µM.
For `Cc1c(F)ccc(F)c1-c1c(C(=O)N[C@@H](CC(=O)N2CCNCC2)c2cccc(Cl)c2)c[nH]c1C#N` [I-876], the dissociation constant Kd was less than 10 µM.
`Fc1ccc(N2CCC[C@@H](Nc3cc(N4CCOCC4)ncn3)C2)cc1` [I-7]: the dissociation constant Kd was in the range of 100 to 200 µM.
Consider `NC(=O)C[C@H](NC(=O)c1c[nH]nc1-c1c(F)cccc1F)c1cccc(Cl)c1` [I-207], for which the Kd was more than 200 µM.
With `Oc1c(CN2CCCCC2)cccc1[C@@H]1CCCN(c2cccc(F)c2)C1` [I-730] the figure was more than 200 µM; with `N[C@@H](c1cncc(N2CCC[C@@H](Nc3cc(N4CCOCC4)ccn3)C2)c1)C1CC1` [I-485], more than 200 µM.
For `c1ccc2ncc(N3CCC[C@@H](Nc4nccc(N5CCOCC5)n4)C3)cc2c1` [I-46], the Kd is more than 200 µM.
`Cc1c(F)ccc(F)c1-c1[nH]ncc1C(=O)N[C@@H](CC(=O)N1CCOCC1)c1cccc(Cl)c1` [I-842]: the Kd is less than 10 µM.
Consider `Cc1c(F)ccc(F)c1-c1c(C(=O)N[C@@H](CC(N)=O)c2cccc(Cl)c2)cn(C)c1C(=O)c1ccc(C#CCOC2CCNCC2)cc1` [I-1003], for which the Kd was less than 10 µM.
Regarding `Cc1cccc(F)c1-c1c(C(=O)N[C@@H](CC(N)=O)c2cccc(Cl)c2)c[nH]c1-c1ccccn1` [I-656], the Kd was less than 10 µM.
On to `COc1ccccc1N1CCC[C@@H](Nc2cc(N3CCOCC3)ncn2)C1` [I-15], for which the equilibrium dissociation constant (Kd) is more than 200 µM.
With `C=CC(=O)NC1CCN(c2ccnc(N[C@@H]3CCCN(c4cccc(F)c4)C3)c2)CC1` [I-519] the figure was 10 to 100 µM; with `C=CC(=O)N1CCC(c2n[nH]cc2C(=O)N[C@@H](CC(N)=O)c2cccc(Cl)c2)CC1` [I-452], more than 200 µM.
As to `NC(=O)C[C@H](NC(=O)C1=C(c2c(F)cccc2F)CNC1)c1cccc(Cl)c1` [I-586], the Kd was less than 10 µM.
With `NC(=O)C[C@H](NC(=O)c1cnn(Cc2ccncn2)c1-c1ccccc1F)c1cccc(Cl)c1` [I-154] the figure was more than 200 µM.
The figure for `CS(=O)(=O)Cc1ccc(F)c(-c2[nH]ncc2C(=O)N[C@@H](CC(N)=O)c2cccc(Cl)c2)c1` [I-246] is more than 200 µM; for `c1cnc2c(N3CCC[C@@H](Nc4cc(N5CCOCC5)ccn4)C3)nccc2c1` [I-64] it is 100 to 200 µM; for `Fc1cccc(N2CCC[C@@H](Nc3cc([C@H]4CCCOC4)ccn3)C2)c1` [I-125] it is more than 200 µM.
As to `Fc1cccc(N2CCC[C@@H](Nc3cc(N4CCCCCC4)ccn3)C2)c1` [I-597], the Kd is less than 10 µM.
`C=CC(=O)NC#Cc1n[nH]cc1C(=O)N[C@@H](CC(N)=O)c1cccc(Cl)c1` [I-473]: the Kd is more than 200 µM.
As for `Cc1ccc(-c2[nH]ncc2C(=O)N[C@@H](CC(N)=O)c2cccc(Cl)c2)cc1` [I-103], the dissociation constant Kd was less than 10 µM.
With `O=C(O)C1(c2cccc(N3CCC[C@@H](Nc4cc(N5CCOCC5)ccn4)C3)c2)CCCC1` [I-697], the equilibrium dissociation constant (Kd) lay in the range of 10 to 100 µM.
The figure for `Cc1sc2c(c1C)C(c1ccc(Cl)cc1)=N[C@@H](CC(=O)NCCOCCOCCOCCOCCOCCOCC(=O)c1[nH]cc(C(=O)N[C@@H](CC(N)=O)c3cccc(Cl)c3)c1-c1ccccc1F)c1nnc(C)n1-2` [I-898] is less than 10 µM; for `NC[C@H]1C[C@H](Nc2cc(N3CCCCC3)ccn2)CN(c2cccc(F)c2)C1` [I-1039] it is 10 to 100 µM; for `COCCOCC[C@H]1CN(c2cc(N3CCCCC3)ccn2)[C@@H]2CCCN(c3cccc(F)c3)[C@H]12` [I-931] it is less than 10 µM.
Regarding `NC(=O)C[C@@]1(NC(=O)c2c[nH]nc2-c2ccccc2F)CCCc2ccc(Cl)cc21` [I-243], the Kd was more than 200 µM.
With `Fc1cccc(N2CCCC(N3CCc4c(N5CCCCC5)ccnc43)C2)c1` (centres unmarked) [I-789] the figure was less than 10 µM; with `OCCC[C@H]1C[C@H]2[C@H](CCCN2c2cccc(F)c2)N1c1cc(N2CCCCC2)ccn1` [I-835], more than 200 µM.
Consider `NC(=O)C[C@H](NC(=O)c1c[nH]c(Cc2ccccc2)c1-c1c(F)cccc1F)c1cccc(Cl)c1` [I-566], for which the Kd was less than 10 µM.
Take `Fc1cccc(N2CCC[C@@H](Nc3cc(N4C[C@@H]5C[C@H]4CO5)ncn3)C2)c1` [I-312]: the dissociation constant (Kd) is more than 200 µM.
`N#Cc1cnc(N2CCOCC2)cc1N[C@@H]1CCCN(c2cccc(F)c2)C1` [I-408]: the Kd is more than 200 µM.
In the case of `c1cc(N2CCOCC2)cc(N[C@@H]2CCCN(c3ccc(CN4CCOCC4)cn3)C2)n1` [I-786], the Kd was in the range of 10 to 100 µM.
Turning to `c1ccc2c(N3CCC[C@@H](Nc4cncc(N5CCOCC5)c4)C3)cncc2c1` [I-365], the Kd is less than 10 µM.
As to `COc1ccc(N2CCOCC2)cc1N[C@@H]1CCCN(c2cccc(F)c2)C1` [I-121], the dissociation constant (Kd) is more than 200 µM.
As to `NCC(=O)N1CC2(CCCN(c3cccc(F)c3)C2)Nc2cc(N3CCCCC3)ncc21` (centres unmarked) [I-1020], the Kd lay in the range of 10 to 100 µM.
On to `Cc1c(F)ccc(F)c1-c1[nH]ncc1C(=O)N[C@@H](CC(=O)N1CCN(C)CC1)c1cccc(Cl)c1` [I-843], for which the Kd was less than 10 µM.
`NC(=O)CC1(NC(=O)c2cn[nH]c2-c2ccccc2F)CCCc2c(Cl)cccc21` (centres unmarked) [I-562]: the Kd is more than 200 µM.
Regarding `c1ccc(N2CCC[C@@H]3[C@H]2CCN3c2cc(N3CC4CC(C4)C3)ccn2)cc1` [I-708], the Kd is less than 10 µM.
`c1cc(N2CCC[C@@H](Nc3nccc(N4CCOCC4)n3)C2)c2cnccc2c1` [I-31]: the Kd was more than 200 µM.
On to `c1ccc2cc(N3CCC[C@@H](Nc4nccc(N5CCOCC5)n4)C3)ncc2c1` [I-47], for which the equilibrium dissociation constant (Kd) lay in the range of 100 to 200 µM.
As for `NC[C@H]1C[C@@H](Nc2cc(N3CCCCC3)ccn2)CN(c2cccc(F)c2)C1` [I-1041], the Kd was 10 to 100 µM.
With `OC[C@@H]1CC[C@@H](Nc2cc(N3CCCCC3)ccn2)CN1c1cccc(F)c1` [I-995], the Kd lay in the range of 10 to 100 µM.
The figure for `COCCOCC[C@@H]1CCCN(c2ccnc(N3CC[C@H]4[C@@H]3CCCN4c3cccc(F)c3)c2)C1` [I-714] is 10 to 100 µM; for `Fc1cccc(N2CCC[C@@H](Nc3cc(C4CCCCC4)ccn3)C2)c1` [I-91] it is more than 200 µM; for `Cc1c(F)ccc(F)c1-c1c(C(=O)N[C@@H](CC(N)=O)c2cccc(Cl)c2)cn(C)c1C(=O)c1ccc(OCCOCCOCCOCCOCCOCCOCCN)cc1` [I-1015] it is less than 10 µM.
As for `NC(=O)C[C@H](NC(=O)c1cn[nH]c1C1=CCOCC1)c1cccc(Cl)c1` [I-496], the Kd is 10 to 100 µM.
`O=C1NCCN1Cc1cccc(N2CCC[C@H]3[C@@H]2CCN3c2cc(N3CCCCC3)ccn2)c1` [I-960]: the equilibrium dissociation constant (Kd) is less than 10 µM.
On to `Fc1cccc(N2CCC[C@@H](N(CC3CC3)c3nccc(N4CCOCC4)n3)C2)c1` [I-41], for which the equilibrium dissociation constant (Kd) was in the range of 100 to 200 µM.
Take `C[C@@H]1CCCCC1c1[nH]ncc1C(=O)N[C@@H](CC(N)=O)c1cccc(Cl)c1` (some centres unmarked) [I-724]: the dissociation constant (Kd) is less than 10 µM.
The figure for `OCCC[C@@H]1C[C@@H]2[C@@H](CCCN2c2cccc(F)c2)N1c1cc(N2CCCCC2)ccn1` [I-821] is more than 200 µM; for `NC(=O)C[C@@](NC(=O)c1c[nH]nc1-c1ccccc1F)(c1ccccc1)c1cccc(Cl)c1` [I-256] it is more than 200 µM.
Regarding `Fc1cccc(N2CC[C@@H](Nc3cc(N4CCOCC4)ccn3)C2)c1` [I-198], the Kd was in the range of 10 to 100 µM.
With `C=CC(=O)NCCC1CCN(c2ccnc(N3CC[C@@H]4[C@H]3CCCN4c3cccc(F)c3)c2)CC1` [I-666] the figure was more than 200 µM.
In the case of `Fc1cccc(N2CCC[C@@H](N3CCc4c(N5CCOCC5)ccnc43)C2)c1` [I-196], the dissociation constant (Kd) was less than 10 µM.
As to `O=C1COc2cc(N3CCC[C@@H](Nc4cc(N5CCOCC5)ccn4)C3)cnc2N1` [I-431], the Kd is less than 10 µM.
As to `O=C1C[C@@H]([C@H](NC(=O)c2c[nH]nc2-c2ccccc2F)c2cccc(Cl)c2)CN1` [I-223], the Kd was more than 200 µM.
For the compound `NC(=O)C[C@H](NC(=O)c1cn[nH]c1-c1cc(CC(F)F)ccc1F)c1cccc(Cl)c1` [I-251], the Kd was more than 200 µM.
`NC(=O)C[C@@]1(NC(=O)c2c[nH]nc2-c2ccccc2F)CCc2c(Cl)cccc21` [I-205]: the dissociation constant (Kd) was more than 200 µM.
`Fc1cccc(N2CCC[C@@H](Nc3cc([C@@H]4CCCCO4)ccn3)C2)c1` [I-94]: the equilibrium dissociation constant (Kd) is more than 200 µM.
With `c1ccc([C@@H]2CCC[C@H](Nc3cc(N4CCCCC4)ccn3)C2)cc1` [I-753], the Kd is 10 to 100 µM.
As for `Cc1c(F)ccc(F)c1-c1c(C(=O)N[C@@H](CC(N)=O)c2cccc(Cl)c2)c[nH]c1/C(=N/OC(C)C)c1ccccc1` [I-759], the Kd was less than 10 µM.
With `CCCCN1CCN(c2ccnc(NC3CCCN(c4cccc(F)c4)C3)n2)CC1` (centres unmarked) [I-26] the figure was more than 200 µM; with `CCOC(=O)Cc1ccc(N2CCC[C@@H](Nc3cc(N4CCOCC4)ccn3)C2)cn1` [I-782], more than 200 µM.
For `C=CC(=O)NCN1CCN(c2ccnc(N[C@@H]3CCCN(c4cccc(F)c4)C3)c2)CC1` [I-466], the dissociation constant (Kd) was in the range of 10 to 100 µM.
In the case of `Cc1ccccc1-c1[nH]ncc1C(=O)N[C@@H](CC(N)=O)c1cccc(Cl)c1` [I-104], the Kd is less than 10 µM.
Take `Oc1ccccc1N1CCC[C@@H](Nc2cc(N3CCOCC3)ncn2)C1` [I-16]: the Kd is more than 200 µM.
For `c1cc(N2CCOCC2)cc(N[C@@H]2CCCN(c3ccc4c(c3)CCC4)C2)n1` [I-872], the Kd was more than 200 µM.
With `Fc1cccc(N2CCC[C@@H](n3ccc(N4CCOCC4)c4ccnc3-4)C2)c1` [I-58] the figure was 10 to 100 µM.
Consider `NC(=O)C[C@H](NC(=O)c1cn[nH]c1[C@H]1CCCOC1)c1cccc(Cl)c1` [I-345], for which the Kd is more than 200 µM.
The figure for `Fc1cccc(N2CCC[C@@H](Nc3ncc(N4CCOCC4)o3)C2)c1` [I-327] is more than 200 µM; for `c1cnc2cc(N3CCC[C@@H](Nc4cc(N5CCOCC5)ncn4)C3)ccc2c1` [I-403] it is more than 200 µM.
